Test results from article PMC10861593, “Kisspeptin-10 binding to Gpr54 in osteoclasts prevents bone loss by activating Dusp18-mediated dephosphorylation of Src” (Nature Communications, 2024).
“Also recorded” adds a separate entry of the source.

Tests used:
[1] = tested on: osteoclast formation from BMMs; test: TRAP staining of osteoclast formation from BMMs; format: cell-based, mouse
[2] = tested on: giant cell tumor of bone (GCT) cells; test: TRAP assay of osteoclast formation in human giant cell tumor of bone (GCT) cells; format: cell-based; conditions: Kp-10 5–7 days
Procedure: BMMs (5 × 10^3 cells/well) were seeded into 96-well plates with a bone slice and incubated with M-CSF (10 ng/ml) and RANKL (50 ng/ml) with or without Kp-10, and the culture medium was changed every other day for 5–7 days. Osteoclasts were fixed and stained by phalloidin and DAPI. “Pits” on bone slice after osteoclast resorption were fixed with 4% Glutaraldehyde and stained with 1% toluidine blue, and pit depth was examined by laser-scanning confocal microscopy. For primary cultures of giant-cell tumor of bone (GCTB) cells, the use of all patient-derived tumor specimens was approved by the Institutional Review Board and the research ethics committee of Shanghai Changzheng Hospital, which appeared in the proceedings of the meeting of the Ethics Committee on 18 November 2014 (report number: 2014090). Informed consent obtained from all tissue donors was written. The GCTB cells were isolated from tumor samples derived from tumor resections in Shanghai Changzheng Hospital, 1 × 10^6 GCTB cells were seeded in a 24-well plate. Cells were stimulated with indicated doses of Kp-10 for 5–7 days. The medium was changed every 2 days. Osteoclasts were fixed and stained using the TRAP-staining kit (Sigma-Aldrich, 387A-1KT).

[3] = tested on: DUSP18, Src, and GPR54 complex; test: Co-IP: DUSP18, Src and GPR54 heterotrimer complex formation in transfected 293T cells; format: cell-based; conditions: 293T with HA-Src, GPR54-Myc, DUSP18 (C104S)-Flag, Kp-10 20 min
Procedure: Anti-Flag IP derived from 293 T cells transfected with HA-Src and either DUSP18-Flag or DUSP18 (C104S)-Flag constructs with or without Kp-10 treatment for 20 min were lysed and subjected to anti-FLAG IP (b). Phosphatase reaction products using His-DUSP18 and His-DUSP18 (C104S) proteins purified from E. coli and SRC proteins purified from Sf9 insect cells (c) and quantification of protein levels (d). Anti-Src IP derived from RAW264.7 cells treated with or without Kp-10 treatment for 20 min were lysed and subjected to anti-Src IP (e) and quantification of protein levels (f). g, h Src and Dusp18 co-localization was analyzed by IF staining in primary pre-osteoclasts treated with 10 nM Kp-10 treatment for 20 min. Representative images of endogenous Dusp18 and Src were shown by TIRF microscopy (g), and MOC was used to quantify the degree of colocalization in cells from multiple images taken randomly (h). Scale bar, 50 µm. i–m IB and quantification of protein levels analysis. Anti-Flag IP derived from 293 T cells transfected with HA-Src, GPR54-myc, and either DUSP18-Flag or DUSP18 (C104S)-Flag constructs after Kp-10 treatment for 20 min (i) and quantification of protein levels (j, k). […] Scale bars, 125 µm (n), and pits depth were quantified by confocal microscopy (o). […] P values were determined by one-way ANOVA analysis (d, f, j, k, m, o) or by two-tailed Student’s t-test (h). […]

[4] = tested on: osteoblast differentiation; test: osteoblast differentiation; format: cell-based, mouse
Procedure: For osteoblast differentiation analyses in vitro, we isolated bone marrow mesenchymal stem cells (MSCs) from femurs and tibias of 8-week-old WT and Kiss1^−/−, Gpr54^−/− and Dusp18^−/− mice using a 1 ml syringe with a 26 G needle. MSCs were seeded into 12-well plates at a concentration of 1 × 10^5 cells per well. Cells were incubated with 50 µg/mL ascorbic acid, 10 mmol/L beta-glycerophosphate and 10 nmol/L dexamethasone. The medium was replaced every 2 days during the incubation period. Alkaline phosphatase (ALP) activity was assayed using the assay mixtures containing 0.1 M 2-amino-2-methyl-1-propanol, 1 mM MgCl2, 8 mM p-nitrophenylphosphate disodium (Sigma). For determination of mineralization, cells were fixed with 95% ethanol and stained with AgNO3 by the von Kossa method.

With Kisspeptin-10 [Kp-10] the osteoclast formation ([1]; Arrb1 knockout BMMs) was “still suppressed by Kp-10; also recorded: still blocked osteoclast formation”, the osteoclast formation ([1]; Arrb2 knockout BMMs) was “still suppressed by Kp-10; also recorded: still blocked osteoclast formation” and the osteoclast formation [2] was “suppressed osteoclast formation; also recorded: dose-dependently suppressed”. The “heterotrimer complex formation with DUSP18 (C104S)” value [3] was “but not when the catalytic center of DUSP18 was killed”, the “osteoblast differentiation, low dose” value ([4]; Kp-10 0.01 nM and 0.1 nM) was “effectively suppressed osteoblast differentiation” and the osteoblast differentiation ([4]; upon Kp-10 stimulation, ALP and von Kossa staining) was “dose-dependently suppressed”.
